Results published in patent publication US20250049832A1, “CRYSTAL FORM OF NUCLEOSIDE COMPOUND” (priority 2021, published 2025).
Values after ≈ are worked out from the molar mass of the structure shown. Blank lines part the entries; values can stand above or below the compound they belong to.

How the values were obtained:
[1] = Solid stability study (XRPD and HPLC purity after storage); assay type: physicochemical
Excerpt: X-ray powder diffraction patterns were collected using a zero-background sample plate on a Bruker D8 Advance X-ray diffractometer equipped with an autosampler. The radiation source used was Cu Kα (λ=1.5418 Å), with the X-ray tube voltage set at 40 kV and the X-ray tube current set at 40 mA. The divergence slit for the X-rays was 0.6 mm. A suitable amount of the sample was placed in the center of the zero-background sample plate under the ambient condition and lightly pressed with a clean glass slide to obtain a smooth, flat surface. The zero-background sample holder was then fixed. Diffraction analysis of the sample was performed with a scan step size of 0.02° (2θ) over a range of 3-40° (2θ). The software used for data collection was DIFFRAC.COMMANDER, and the data were analyzed and presented using DIFFRAC.EVA. The instrument used for liquid chromatography analysis is the Agilent HPLC 1260 series. [table] The ATV014 crystalline form I obtained from Example 2, batch number 41579-025-C1, was used for solid stability studies. The samples were placed under the conditions shown in Table 5, and then their XRPD and purity were tested.

physchem = assay type: physicochemical
Protocol: Based on the salt screening study results, the solubility of ATV014 crystalline form I obtained in Example 2, batch number 41579-025-C5, was determined at 37° C. in FaSSIF, FeSSIF, SGF, and water at 0.5 h, 2 h, and 24 h. The solubility of the sample is pH-dependent, meaning that the lower the pH, the higher the solubility.

[2] = Dynamic vapor sorption analysis (DVS), hygroscopicity; assay type: physicochemical; details: for DVS Hygroscopic weight gain %: 25° C., batch 41579-025-C5
Protocol: Vapor sorption/desorption data of the sample was obtained using DVS Intrinsic. A sample of 10-50 mg was weighed and placed in the sample chamber for automatic weighing. Parameters were set according to Table 1 to analyze the hygroscopicity of the sample.
The ATV014 crystalline form I obtained in Example 2 with batch number 41579-025-C5 was subjected to PLM (Polarized Light Microscopy Analysis), XRPD (X-ray Powder Diffraction), DSC (Differential Scanning calorimetry), TGA (Thermogravimetric Analysis), and DVS (Dynamic Vapor Sorption Instrument) testing.

[3] = Activity of ATV014 compared to GS-441524 (inventor's research)
Excerpt: (§1) The compound represented by the formula ATV014 is a derivative of the compound GS-441524.

[4] = Excerpt: as §1
SARS-CoV-2 = details: in vivo activity tests in mice; cited from earlier work
[5] = 40° C./75% RH, open container, 7 days
[6] = 60° C., closed container, 7 days
[7] = Room temperature/92.5% RH, open container, 7 days

Purity % ([1]; 0 day (start of stability study), batch 41579-025-C1): 98.12%
Purity % [1, 5]: 98.09%
XRPD result [1, 5]: No change
Purity % [1, 6]: 98.10%
XRPD result [1, 6]: No change
physical and chemical properties after storage ([1]; 7 days under 40° C./75% RH, 60° C., and 92.5% RH): remained stable
Purity % [1, 7]: 98.19%
XRPD result [1, 7]: No change
crystalline form of remaining solids during solubility determination (XRPD) (physchem): the crystalline form did not change
Solubility (physchem; 37 °C, pH 1.24, simulated gastric fluid, thermodynamic from solid): ~2900 µg/mL (≈ 7.22 mM)
Solubility (physchem; 37 °C, pH 5.53, water, thermodynamic from solid): ~5 µg/mL (≈ 0.0125 mM)
Solubility (physchem; 0.5 h, pH 1.24): 2480 µg/mL (≈ 6.18 mM)
Solubility (physchem; 2 h, pH 1.24): 2560 µg/mL (≈ 6.38 mM)
Solubility (physchem; 24 h, pH 1.24): 2860 µg/mL (≈ 7.12 mM)
XPRD (remaining solid) (physchem; 24 h, pH 5.53): Unchanged
XPRD (remaining solid) (physchem; simulated gi fluid, 24 h, pH 1.24): Unchanged
XPRD (remaining solid) (physchem; simulated gi fluid, 24 h, pH 4.95): Unchanged
XPRD (remaining solid) (physchem; simulated gi fluid, 24 h, pH 6.45): Unchanged
hygroscopicity (DVS results) [2]: low hygroscopicity
DVS Hygroscopic weight gain % ([2]; 80% RH): 80% RH: 0.31%.
DVS Hygroscopic weight gain % ([2]; 90% RH): 90% RH: 0.40%.
Crystalline form after DVS testing ([2]; after full sorption/desorption cycle): unchanged after
Structure (SMILES): N#C[C@@]1(c2ccc3c(N)ncnn23)O[C@H](COC(=O)C2CCCCC2)[C@@H](O)[C@H]1O [ATV014 crystalline form I]

bioavailability compared to the compound GS-441524 [4]: better
Structure (SMILES): N#C[C@@]1(c2ccc3c(N)ncnn23)O[C@H](COC(=O)C2CCCCC2)[C@@H](O)[C@H]1O [ATV014]
activity compared to the compound GS-441524 [3]: better

Structure (SMILES): N#C[C@@]1(c2ccc3c(N)ncnn23)O[C@H](CO)[C@@H](O)[C@H]1O [GS-441524]
antiviral activity compared to Remdesivir (SARS-CoV-2): superior antiviral activity compared to Remdesivir
